Experimental data from article PMC12518639, “Apomorphine is a novel necroptosis inhibitor targeting mixed lineage kinase domain-like protein oligomerization” (Cell Death Discovery, 2025).

Legend:
Ct-hMLKL (183–471) = target: T1, Ct-hMLKL (183–471) (Homo sapiens, UniProt Q8NB16); test: SPR binding to Ct-hMLKL; conditions: CM5 chip
T1 construct: Nt-hMLKL (2–154), Nt-mMLKL (1–180), and Ct-hMLKL (183–471) were generated using the pBT7-N-His vector; His (N); made in house; host or cells: E. coli BL21
T1 sequence (Q8NB16 183-471): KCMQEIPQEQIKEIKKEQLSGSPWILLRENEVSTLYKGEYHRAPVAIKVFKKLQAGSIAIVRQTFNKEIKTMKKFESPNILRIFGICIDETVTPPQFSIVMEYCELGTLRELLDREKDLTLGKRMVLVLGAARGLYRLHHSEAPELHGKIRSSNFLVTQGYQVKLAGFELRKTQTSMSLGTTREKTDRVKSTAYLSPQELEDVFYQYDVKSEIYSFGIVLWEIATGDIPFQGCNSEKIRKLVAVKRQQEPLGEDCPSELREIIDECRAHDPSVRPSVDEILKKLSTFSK
Excerpt: (§1) The hMLKL plasmid (RC213152, OriGene, Rockville, MD, USA), and recombinant Wt-hMLKL (ab241453, Abcam) and Wt-mMLKL (MBS1379843, MyBioSource, San Diego, CA, USA) proteins were purchased. Nt-hMLKL (2–154), Nt-mMLKL (1–180), and Ct-hMLKL (183–471) were generated using the pBT7-N-His vector. Nt-hMLKL^C86A, Nt-hMLKL^F148A, -hMLKL^C86A/L89A/D94A, and Nt-hMLKL^R145A/R146A/F148A/M150A were generated using the Site-directed Mutagenesis Kit (EZ004S, Enzynomics, S. Korea). These constructs were subcloned into pBT7-N-His and pET-15b plasmid vectors. E. coli BL21 cells transformed with the cloned expression vectors were cultured in LB medium and supplemented with 100 μg/mL ampicillin until an OD at 600 nm of 0.5–0.6 was reached. The cultures were induced by 1 mM IPTG (367-93-1, Sigma-Aldrich). The cells were lysed and centrifuged. The clear supernatants were subjected to Ni-NTA affinity chromatography (175018169, QIAGEN, Hilden, Germany). Plasmids encoding mMLKL (1–464)–gyrase fusion constructs were kindly provided by Prof. […]
(§2) The interactions of Wt-hMLKL, Wt-mMLKL, Nt-mMLKL, Nt, and Ct-hMLKL proteins with Re-APO or Ox-APO were detected through SPR analysis using Biacore™ T200 (Cytiva, Marlborough, MA, USA). […] Sensorgrams were recorded and analyzed in real-time using the control software in the BIAcore T200 system. All data were analyzed using the BIA evaluation software (Cytiva).

Wt-mMLKL = target: T2, Wt-mMLKL (Mus musculus, UniProt Q9D2Y4); test: SPR binding to Wt-mMLKL; conditions: CM5 chip, 25 °C
T2 construct: purchased MyBioSource MBS1379843
T2 sequence (Q9D2Y4 whole entry): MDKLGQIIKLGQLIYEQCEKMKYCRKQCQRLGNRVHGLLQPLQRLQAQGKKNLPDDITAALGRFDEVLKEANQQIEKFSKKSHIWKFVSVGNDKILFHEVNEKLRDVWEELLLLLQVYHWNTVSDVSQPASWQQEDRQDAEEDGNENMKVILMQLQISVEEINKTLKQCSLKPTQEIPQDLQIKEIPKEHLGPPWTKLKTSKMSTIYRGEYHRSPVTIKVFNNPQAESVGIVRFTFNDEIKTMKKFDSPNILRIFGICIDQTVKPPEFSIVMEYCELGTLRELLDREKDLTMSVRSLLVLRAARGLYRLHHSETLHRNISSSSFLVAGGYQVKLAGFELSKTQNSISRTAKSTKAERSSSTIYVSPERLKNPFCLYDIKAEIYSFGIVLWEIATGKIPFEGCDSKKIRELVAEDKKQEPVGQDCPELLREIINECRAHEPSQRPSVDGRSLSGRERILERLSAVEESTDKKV
Excerpt: as §1, §2

mouse MLKL (mMLKL) = test: MLKL oligomerization Western blot in J774A.1 cells; type: cell-based; conditions: J774A.1, TBZ, 20 μM, 8 h
Protocol: Fig. 2 Effect of redox-sensitive APO on MLKL oligomerization. A Chemical structure of APO. APO undergoes auto-oxidation to form the oxidized form (Ox-APO), while the addition of DTT preserves the reduced form (Re-APO). The red highlights indicate the sites where APO loses hydrogen and electrons during the oxidation process. B Real-time 1D ^1H NMR spectra showing the degree of oxidation of APO. APO was dissolved from its powdered form in DPBS and incubated at 25 °C for 36 h. Real-time 1D ^1H NMR spectra were measured at a 2 h intervals after filtration through a 0.2 μm syringe filter to remove precipitates. […] C MLKL oligomerization is inhibited by APO. THP-1 cells were treated with TBZ and Re-APO or Ox-APO for 8 h. Western blot analysis of WCLs was performed under non-reducing and reducing conditions using the indicated antibodies. Percentage changes of p-MLKL oligomer band relative to GAPDH were shown. The p value for MLKL oligomer band intensity was calculated based on the average intensity of the tetramer and octamer bands. Octa octamer, Tetra tetramer, Mono monomer. Mean ± SEM (n = 3). **p < 0.001, ns not significant, one-way ANOVA. D THP-1 cells were treated with TBZ and Ox-APO or Re-APO for 8 h and then stained with DAPI and MLKL for confocal microscopy. In the intensity graph, green indicates MLKL. The signal intensity of MLKL fluorescence from the plasma membrane to the cytosol was measured using FluoView FV1000 software. Mean ± SEM (n > 100). **p < 0.01, ***p < 0.001, one-way ANOVA. E J774A.1 mouse monocytic cells were treated with TBZ and 20 μM Re-APO or Ox-APO for 8 h. Western blot analysis of WCLs was performed under non-reducing and reducing conditions using the indicated antibodies.
The cells were harvested and lysed in 1× RIPA buffer (R4100-010, GenDEPOT, Katy, TX, USA) containing protease (P3100-001, GenDEPOT) and phosphatase (1862495, Thermo Fisher Scientific) inhibitors. WCLs were then centrifuged at 20,000×g for 30 min at 4 °C and subjected to non-reducing or reducing 8–12% SDS-PAGE gel electrophoresis. The membrane was blocked with 5% non-fat milk in TBS and probed with antibodies. Antibodies to hMLKL (14993S), mMLKL (97705S), phospho-hMLKL (Ser358) (91689S), phospho-mMLKL (Ser345) (37333S), phospho-hRIP1 (Ser166) (65746S), mRIP1 (3493S), phospho-mRIP1 (Ser321) (38662S), phospho-hRIP3 (Ser227) (93654), mRIP3 (95702S), p-mRIP3 (Thr231/Ser232) (91702S), and LDH (2012S) (Cell Signaling Technology, Danvers, MA, USA), and GAPDH (LF-PA0018, Abfrontier, S. Korea), hRIP1 (ab72139, Abcam, Cambridge, UK), hRIP3 (sc-135170, Santa Cruz Biotechnology, Dallas, TX, USA), HMGB1 (ab78923, Abcam), and LAMP1 (ab24170, Abcam) antibodies were used.

Question: What does the source list for CN1CCc2cccc3c4c(cc1c23)C=CC(=O)C4=O [Ox-APO]?
Answer: binding in SPR (Ct-hMLKL (183–471)): no detectable binding; Kd (Wt-mMLKL): 0.000381 µM; formation of mMLKL tetramers and octamers (mouse MLKL (mMLKL)): strongly prevented; phosphorylation of mRIP1, mRIP3 and mMLKL (mouse MLKL (mMLKL)): little effect

Question: Which “binding in SPR” value (Ct-hMLKL (183–471)) does the source give for CN1CCc2cccc3c2C1Cc1ccc(O)c(O)c1-3 (centres unmarked) [Re-APO] here?
Answer: no detectable binding

Question: What about the Kd (Wt-mMLKL) of the same molecule?
Answer: 0.0229 µM

Question: And the “formation of mMLKL tetramers and octamers” value (mouse MLKL (mMLKL))?
Answer: strongly prevented

Question: What about the “phosphorylation of mRIP1, mRIP3 and mMLKL” value (mouse MLKL (mMLKL)) of the same molecule?
Answer: little effect
